From US6376553B1, “Treatment of pain” (Knoll Pharmaceutical Company, priority 1999, dated 2002) come the findings set out here.

Usually Ki stands for the equilibrium dissociation constant of an inhibitor or competing ligand from its target.

This assay concerns the target [3H]Noradenaline reuptake (Rattus norvegicus, UniProt Q9WTR4). Kind of assay: biochemical.

[3H]Noradenaline reuptake, sequence (Q9WTR4 1-597): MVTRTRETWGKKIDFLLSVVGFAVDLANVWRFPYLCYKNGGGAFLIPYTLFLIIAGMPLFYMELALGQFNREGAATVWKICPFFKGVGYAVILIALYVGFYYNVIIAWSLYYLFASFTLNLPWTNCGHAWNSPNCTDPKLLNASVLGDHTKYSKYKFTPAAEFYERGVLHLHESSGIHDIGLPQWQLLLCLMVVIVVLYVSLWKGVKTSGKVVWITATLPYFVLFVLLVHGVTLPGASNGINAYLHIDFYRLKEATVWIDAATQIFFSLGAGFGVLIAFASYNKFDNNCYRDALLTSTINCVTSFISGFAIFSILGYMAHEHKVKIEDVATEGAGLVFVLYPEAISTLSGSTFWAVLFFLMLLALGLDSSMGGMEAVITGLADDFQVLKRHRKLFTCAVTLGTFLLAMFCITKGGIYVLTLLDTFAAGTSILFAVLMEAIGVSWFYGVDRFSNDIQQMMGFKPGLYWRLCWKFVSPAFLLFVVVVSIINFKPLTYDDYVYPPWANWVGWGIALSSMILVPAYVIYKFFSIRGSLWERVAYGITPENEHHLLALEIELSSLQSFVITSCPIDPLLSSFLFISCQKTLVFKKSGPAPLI

In turn, `CC(NC(C)(C)C)C(=O)c1cccc(Cl)c1` (stereo not shown) [Bupropion] gave an inhibition constant (Ki) of 2.59 µM.
